For 2 compounds, IC50 results are on record in US4906657A, “Bicyclo heptane and bicyclo octane substituted inhibitors of cholesterol synthesis” (Warner-Lambert Company, priority 1988, dated 1990).

By IC50 is commonly meant the point on the concentration scale where inhibition reaches its midpoint. Read a high IC50 as a need for much substance.

The test relates to biosynthesis of cholesterol (rat liver homogenate). Description: CSI screen (inhibition of sterol synthesis; incorporation of 14C-acetate into non-saponifiable lipid by rat liver homogenate). The test is classed as biochemical. The following applies: 50% inhibition of sterol synthesis over a one-hour period. As for the experimental part:
The ability of compounds of the present invention to inhibit the biosynthesis of cholesterol was measured by a method (designated CSI screen) which utilizes the procedure described by R. E. Dugan, et al, Archiv. Biochem. Biophys., (1972), 152, 21-27. In this method, the level of HMG-CoA enzyme activity in standard laboratory rats is increased by feeding the rats a chow diet containing 5% cholestryramine for four days, after which the rats are sacrificed.
The rat livers are homogenized, and the incorporation of […] into non-saponifiable lipid by the rat liver homogenate is measured. The micromolar concentration of compound required for 50% inhibition of sterol synthesis over a one-hour period is measured, and expressed as an IC50 value.

For `C=C1CC2(C)CC1C(c1ccccc1)=C2C=CC1CC(O)CC(=O)O1` (centres unmarked), half-maximal inhibition (IC50) was put at 440 nM.

Compound `C=C1CC2(C)CC1C(c1ccccc1)=C2/C=C/[C@@H](O)C[C@@H](O)CC(=O)OCC` (relative stereo) had a 50% inhibitory concentration (IC50) of 440 nM.
